# Data taken from patent publication US6593343B2, “Quinoline derivatives” (Active Biotech AB, priority 1998, dated 2003).
# Legend:
# [1] = system: fetuses of female rats; assay: Teratogenic effects in the rat; format: in vivo
# [2] = system: fetuses of female rats; conditions: rat, background statement; cited from earlier work
# [3] = system: beagle dogs; assay: Beagle Pain Syndrome (BPS); format: in vivo, dog
# Method: Beagle Pain Syndrome (BPS)
# The compounds were administrated intravenously to beagle dogs. The dosage was given for five consecutive days. The dogs were evaluated for clinical and laboratory signs of the pain syndrome, e.g. fever, increased erythrocyte sedimentation rate (ESR), alkaline phosphate (AP), induction of acute phase proteins and vasculitis.
# [4] = e.g. a flu-like syndrome; cited from earlier work
# [5] = system: acute experimental autoimmune encephalomyelitis (aEAE); assay: Acute experimental autoimmune encephalomyelitis (aEAE) inhibition; format: in vivo; conditions: at ≧5 mg/kg, mice, treatment control
Beagle Pain Syndrome (in words) [3],Compound,% malformed fetuses ([1]; 6 mg/kg p.o.),teratogenicity (in words) [2],% malformed fetuses ([1]; 10 mg/kg p.o.),% malformed fetuses ([1]; 30 mg/kg p.o.),side effects in man (in words) [4],inhibition of aEAE [5]
–,"CN(C(=O)c1c(O)c2c(Cl)cccc2n(C)c1=O)c1ccc(F)cc1F [Compound B, N-methyl-N-(2,4-difluoro-phenyl)-1,2-dihydro-4-hydroxy-5-chloro-1-methyl-2-oxo-quinoline-3-carboxamide]",0%,–,–,–,–,–
–,"CN(C(=O)c1c(O)c2c(Cl)cccc2n(C)c1=O)c1ccccc1 [Compound C, N-Methyl-N-phenyl-1,2-dihydro-4-hydroxy-5-chloro-1-methyl-2-oxo-quinoline-3-carboxamide]",37%,–,–,–,–,–
induce the Beagle Pain Syndrome,"CN(C(=O)c1c(O)c2ccccc2n(C)c1=O)c1ccccc1 [Compound D, N-phenyl-N-methyl-1,2-dihydro-4-hydroxy-1-methyl-2-oxo-quinoline-3-carboxamide]",–,teratogenic in the rat,9%,30%,dose-limiting side effects,more than 50%
–,"COc1cccc2c1c(O)c(C(=O)N(C)c1ccc(C(F)(F)F)cc1)c(=O)n2C [Compound A, N-methyl-N-(4-trifluoromethyl-phenyl)-1,2-dihydro-4-hydroxy-5-methoxy-1-methyl-2-oxo-quinoline-3-carboxamide]",4%,–,–,2%,–,–
